Laboratory results from patent publication US20140128352A1, “COMPOUNDS AND METHODS FOR MODULATING MITOCHONDRIAL METABOLISM AND REACTIVE OXYGEN SPECIES PRODUCTION” (Buck Institute for Research on Aging, priority 2012, published 2014).
“Also recorded” adds a separate entry of the source. Like-named read-outs stand apart in the source and are kept apart here.

Key:
[1] = test system: mitochondrial membrane potential (ΔΨm); assay: Membrane potential (ΔΨm) counterscreen with TMRM; settings: malate, nigericin
Procedure: Skeletal muscle mitochondria were isolated from 5-8 week old female Wistar rats (Harlan Laboratories). Minced muscle was homogenized in buffer containing bacterial protease Type VIII prior to differential centrifugation to separate mitochondria from other tissue components. Unless otherwise stated, freshly isolated muscle mitochondria were assayed in buffer containing 120 mM KCl, 5 mM HEPES, 1 mM EGTA, 0.3% (w/v) bovine serum albumin. Where indicated, CaCl2 was added to yield a final free concentration of 250 nM calcium at pH 7.0 at 37° C. Total and free calcium concentrations were calculated using the Extended MaxChelator program at http://maxchelator.stanford.edu.
Compounds were manually transferred from the Master Compound Plate to two black 96-well assay plates. A bulk solution was prepared containing the following components (final concentrations) and manually dispensed into the two ΔΨm assay plates: the potentiometric dye TMRM (5 μM), mitochondria (0.2 mg/mL), glutamate (5 mM), malate (5 mM), and nigericin (80 ng/mL).

[2] = test system: ubiquinone binding site of complex I (IQ); assay: High-throughput screen: ROS production from ubiquinone binding site of complex I (IQ), isolated skeletal muscle mitochondria; assay type: biochemical, rat; settings: for IQ: percent change in ROS from DMSO controls; for % Reduction in ROS production (IQ): Table 2, 5 mM succinate, compounds 2.5 μM, percent change from DMSO, positive control −100%
[3] = molecular target: T1, glycerol-3-phosphate dehydrogenase (GPDH) (Rattus norvegicus, UniProt P35571); assay: High-throughput screen: ROS production from glycerol-3-phosphate dehydrogenase (GPDH); assay type: biochemical; parameters: inhibition: dose or concentration left out as unconfirmed; settings: for inhibition / GPDH: percent change in ROS from DMSO controls
T1 construct: The activity of GPDH in intact mitochondria (0.3 mg/mL) was measured; from tissue; host or cells: rat skeletal muscle mitochondria (Wistar, Harlan Laboratories)
T1 sequence (P35571 43-727): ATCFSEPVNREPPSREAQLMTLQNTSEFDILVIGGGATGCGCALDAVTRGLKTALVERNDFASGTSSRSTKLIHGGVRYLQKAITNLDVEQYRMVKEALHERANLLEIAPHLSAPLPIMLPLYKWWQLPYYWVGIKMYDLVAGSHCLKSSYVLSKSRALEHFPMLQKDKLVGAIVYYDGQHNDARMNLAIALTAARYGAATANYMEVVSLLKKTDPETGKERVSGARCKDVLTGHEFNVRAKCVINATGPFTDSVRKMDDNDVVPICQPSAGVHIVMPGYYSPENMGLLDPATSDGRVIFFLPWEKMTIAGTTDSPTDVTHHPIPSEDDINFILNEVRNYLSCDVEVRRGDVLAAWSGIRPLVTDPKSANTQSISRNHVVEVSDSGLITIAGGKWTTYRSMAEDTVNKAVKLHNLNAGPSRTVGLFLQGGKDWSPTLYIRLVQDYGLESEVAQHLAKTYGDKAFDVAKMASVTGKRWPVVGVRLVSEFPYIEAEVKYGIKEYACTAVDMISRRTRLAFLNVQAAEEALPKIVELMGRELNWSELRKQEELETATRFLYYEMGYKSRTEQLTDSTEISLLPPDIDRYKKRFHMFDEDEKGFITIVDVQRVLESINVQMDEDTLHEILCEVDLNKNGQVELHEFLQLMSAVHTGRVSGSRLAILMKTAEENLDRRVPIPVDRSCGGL
Procedure: Skeletal muscle mitochondria were isolated from 5-8 week old female Wistar rats (Harlan Laboratories). Minced muscle was homogenized in buffer containing bacterial protease Type VIII prior to differential centrifugation to separate mitochondria from other tissue components. Unless otherwise stated, freshly isolated muscle mitochondria were assayed in buffer containing 120 mM KCl, 5 mM HEPES, 1 mM EGTA, 0.3% (w/v) bovine serum albumin. Where indicated, CaCl2 was added to yield a final free concentration of 250 nM calcium at pH 7.0 at 37° C.
Compounds (10 mM in DMSO) were randomly selected from a library of 24,000 compounds obtained from ChemBridge and curated by the lab of Robert Hughes at the Buck Institute. Master screening plates were prepared using a Biomek FX liquid handling workstation (Beckman) to transfer 1 μL of each compound into individual wells on 96-well storage plates (80 compounds per plate). Master plates were sealed with foil and stored at −80° C. Just prior to use, plates were brought to room temperature and diluted 300-fold with standard buffer (13.3X=33.3 μM). To monitor the performance of each assay throughout screening and to provide intra-plate normalization reference points, DMSO negative controls and known mitochondrial inhibitor positive controls were included on each Master compound plate.
Total amounts of superoxide and H2O2 production were determined fluorometrically as H2O2, without distinguishing between them, in the presence of exogenous superoxide dismutase (25 units/mL final), horseradish peroxidase (1 unit/mL final), and Amplex UltraRed (25 μM final) as described (Affourtit, C. et al. (2012) Measurement of proton leak and electron leak in isolated mitochondria. Methods Mol. Biol. 810: 165-82). Just prior to use, a bulk 3.3X solution was made in standard buffer and distributed into a 2 mL deep well 96-well transfer plate.
To assess the effects of a compound on ROS production from glycerol-3-phosphate dehydrogenase (GPDH), Start Solution containing 25 mM glycerol phosphate, 4 μM rotenone, 2.5 μM antimycin A, 1 mM malonate, 2 μM myxothiazol was distributed into standard 96-well transfer plates. A Biomek FX workstation was programmed to dispense solutions into black 96-well assay plates. Solutions were dispensed to all assay plates in the following order: ROS Detection solution described in Example 3, Mitochondria solution described in Example 1 to a final concentration of 0.2 mg/ml, and Compound dilutions described in Example 2. Duplicate assay plates were made and each was initiated by the addition of 3.3X Start solution containing 25 mM glycerol phosphate, 4 μM rotenone, 2.5 μM antimycin A, 1 mM malonate, 2 μM myxothiazol. Plates were incubated in the dark at room temperature for 30-40 minutes before acquiring endpoint fluorescence using a Victor 3V plate reader (Perkin Elmer) equipped with 550/590 nm excitation/emission filters.
The fluorescence values in each well were scaled as the percent change from the intra-plate DMSO controls. […] Following initial scaling, intra-plate normalized values were subjected to Tukey's two-way median polish to remove row and column dependent positional effects (Malo et al., 2006).

[4] = molecular target: T2, outer ubiquinone binding site of complex III (IIIQO) (Rattus norvegicus, UniProt P00159+P20788); assay: High-throughput screen: ROS production from outer ubiquinone binding site of complex III (IIIQO); assay type: biochemical
T2 construct: freshly isolated muscle mitochondria were assayed; from tissue; host or cells: rat skeletal muscle mitochondria (Wistar, Harlan Laboratories)

[5] = test system: site IQ; assay: Retest of IQ ROS production (expanded microplate panel / cuvette); assay type: biochemical, rat; settings: retest; subsaturating (0.5 mM) succinate
Procedure: Compounds identified as site-selective hits as well as structural analogs were re-sourced from ChemBridge and dissolved in DMSO as 80 mM stocks. Master Titration Plates were prepared manually by serially diluting 80 mM compound stocks between 0.08 and 80 mM on 96-well microplates. Four compounds were titrated in duplicate on each plate. Additional DMSO controls were interspersed across these plates to serve as local normalization controls during analysis since two-way median polishing was not appropriate. Just prior to use, compounds were diluted 100-fold with standard buffer (10X). The same known inhibitor positive controls were included on each plate as during high-throughput screening.
The five core ROS assays and single ΔΨm assay were carried out as in the initial high-throughput screen. In addition, several assays were included to help validate the specificity of the compounds for a given site of production. All compounds were titrated against separate assays targeting IQ ROS and IIIQo ROS using subsaturating (0.5 mM final) succinate. […] Specifically, ΔΨm was monitored separately with 5 mM succinate (in the presence of 4 μM rotenone) in addition to glutamate and malate as before. The use of different substrates was designed to reveal compounds that disrupt mitochondrial function in a substrate specific manner.
Most frequently, these changes involved the use of different substrates to supply electrons from an alternative entry point in the chain. If a site of ROS production is being targeted selectively by a compound, then in many cases the supply of electrons should not influence the effectiveness of this compound at suppressing ROS production. […] Alternative conditions are listed below: • 1) IQ ROS: 5 mM succinate with 1 mM glutamate • 2) IF ROS: 5 mM malate only as substrate (in the presence of 4 μM rotenone) • 3) IIIQo ROS: 5 mM succinate (in the presence of 3 mM malonate, 4 uM rotenone, and 2.5 μM antimycin A) • 4) IIIQo ROS: 25 mM glycerol phosphate (in the presence of 1 mM malonate, 4 μM rotenone, and 2.5 μM antimycin A) • 5) SDH: 0.5 mM succinate (in the presence of 4 uM rotenone, 2.5 uM antimycin A, and 2 μM myxothiazol) • 6) GPDH: Vary the concentration of glycerol phosphate in the presence or absence of 250 nM free calcium to allosterically activate GPDH (all in the presence of 4 μM rotenone, 2.5 uM antimycin A, 1 mM malonate, and 2 μM myxothiazol) • 7) ΔΨm: Vary the concentration of glycerol phosphate in the presence or absence of 250 nM free calcium to allosterically activate GPDH and in the presence or absence of 80 ng/mL nigericin (all in the presence of 4 μM rotenone)
The fluorescence values in each well were scaled in relation to the intra-plate DMSO and known inhibitor controls as in the high-throughput screen except that median values for local interspersed DMSO wells (3-6 wells) were used rather than just the 8 DMSO wells in columns 1 and 12. This normalization was applied in place of the two-way median polish used during high-throughput screening to minimize row and column effects. […] At this stage, strong candidates were not necessarily excluded from further testing if subtle off-target effects were observed (e.g. loss of specificity or signs of general inhibition at the highest concentrations). Rather, these candidates were often pursued for more detailed mechanistic studies with the expectation that subsequent structure activity analysis would provide insight into which structurally related compounds would provide the optimal specificity for a given site of production.
Candidate compounds that remained site-selective following robotics assisted retesting were subsequently tested for effects on ROS production and ΔΨm with a Varian Cary Eclipse fluorimeter (excitation 550 nm, emission at 590 nm). This experimental format allows kinetic measurements of ROS production and ΔΨm with more accurate temperature control, sample stirring, and background correction. […]

[6] = molecular target: T3, succinate dehydrogenase/complex II (SDH) (Rattus norvegicus, UniProt P21913+Q641Z9+Q6PCT8+Q920L2); assay: High-throughput screen: ROS production from succinate dehydrogenase/complex II (SDH); assay type: biochemical; settings: for inhibition at 2.5 µM / SDH: percent change in ROS from DMSO controls; for % Reduction in ROS Production (SDH): Table 5, 15 μM palmitoyl carnitine, 2.5 μM antimycin A, 2 μM myxothiazol, compounds 2.5 μM, percent change from DMSO
T3 construct: freshly isolated muscle mitochondria were assayed; from tissue; host or cells: rat skeletal muscle mitochondria (Wistar, Harlan Laboratories)
T3 sequence (Q920L2 35-656): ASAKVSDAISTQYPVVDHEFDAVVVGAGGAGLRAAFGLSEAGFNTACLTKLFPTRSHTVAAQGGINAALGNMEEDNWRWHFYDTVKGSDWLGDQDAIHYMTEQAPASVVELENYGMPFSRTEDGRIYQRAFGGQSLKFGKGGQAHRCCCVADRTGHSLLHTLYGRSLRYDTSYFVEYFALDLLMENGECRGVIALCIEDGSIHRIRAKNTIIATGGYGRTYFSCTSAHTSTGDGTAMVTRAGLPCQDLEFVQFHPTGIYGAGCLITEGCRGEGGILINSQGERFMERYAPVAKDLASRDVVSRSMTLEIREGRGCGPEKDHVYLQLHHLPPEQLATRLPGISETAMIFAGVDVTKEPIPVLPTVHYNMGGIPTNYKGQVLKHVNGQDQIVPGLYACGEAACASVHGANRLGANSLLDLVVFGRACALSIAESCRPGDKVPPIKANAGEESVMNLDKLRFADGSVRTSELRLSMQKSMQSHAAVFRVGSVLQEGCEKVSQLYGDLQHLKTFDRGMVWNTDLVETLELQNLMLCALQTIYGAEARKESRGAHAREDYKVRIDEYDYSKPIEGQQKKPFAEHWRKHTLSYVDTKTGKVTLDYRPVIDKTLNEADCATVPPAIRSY
T3 sequence (P21913 31-282): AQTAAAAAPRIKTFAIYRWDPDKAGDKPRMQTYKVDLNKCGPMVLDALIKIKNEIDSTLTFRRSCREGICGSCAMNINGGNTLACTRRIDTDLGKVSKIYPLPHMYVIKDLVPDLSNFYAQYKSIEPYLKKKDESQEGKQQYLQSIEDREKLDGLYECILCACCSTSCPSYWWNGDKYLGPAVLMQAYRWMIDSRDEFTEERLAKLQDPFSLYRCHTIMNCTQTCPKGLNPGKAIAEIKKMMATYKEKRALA
T3 sequence (Q641Z9 30-169 limits assumed): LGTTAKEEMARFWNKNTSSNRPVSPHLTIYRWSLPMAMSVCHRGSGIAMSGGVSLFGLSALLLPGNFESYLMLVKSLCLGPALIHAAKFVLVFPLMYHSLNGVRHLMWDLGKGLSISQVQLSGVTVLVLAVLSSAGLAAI
T3 sequence (Q6PCT8 57-159): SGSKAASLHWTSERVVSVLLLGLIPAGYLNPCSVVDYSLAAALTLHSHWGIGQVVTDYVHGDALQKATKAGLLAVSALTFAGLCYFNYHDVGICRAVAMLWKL

[7] = molecular target: T4, flavin binding site of complex I (IF) (Rattus norvegicus, UniProt Q5XIH3); assay: High-throughput screen: ROS production from flavin binding site of complex I (IF); assay type: biochemical
T4 construct: freshly isolated muscle mitochondria were assayed; from tissue; host or cells: rat skeletal muscle mitochondria (Wistar, Harlan Laboratories)
T4 sequence (Q5XIH3 21-464 limits assumed, one chain of several): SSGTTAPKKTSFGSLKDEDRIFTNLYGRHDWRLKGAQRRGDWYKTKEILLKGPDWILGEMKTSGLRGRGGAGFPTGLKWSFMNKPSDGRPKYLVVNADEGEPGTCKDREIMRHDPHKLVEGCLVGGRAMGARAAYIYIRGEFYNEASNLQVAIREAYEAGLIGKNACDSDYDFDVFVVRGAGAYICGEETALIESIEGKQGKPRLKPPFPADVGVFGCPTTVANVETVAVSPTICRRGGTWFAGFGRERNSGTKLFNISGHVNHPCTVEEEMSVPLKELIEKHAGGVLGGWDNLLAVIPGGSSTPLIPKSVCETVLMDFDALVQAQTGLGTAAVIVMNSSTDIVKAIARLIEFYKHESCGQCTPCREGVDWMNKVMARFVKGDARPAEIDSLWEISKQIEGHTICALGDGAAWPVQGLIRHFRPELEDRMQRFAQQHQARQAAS

[8] = Table 8, percent change in ROS from DMSO controls
[9] = Table 3, 5 mM glutamate, 5 mM malate, 4 μM rotenone, compounds 2.5 μM, percent change from DMSO, positive control −100%, read-out: % Reduction in ROS production (IF)
[10] = Table 9, percent change in ROS from DMSO controls
[11] = Table 8, percent change in ROS from DMSO controls, read-out: IIIQO
[12] = Table 8, percent change in ROS from DMSO controls, read-out: IF
[13] = Table 4, 5 mM succinate, 4 μM rotenone, 2.5 μM antimycin A, compounds 2.5 μM, percent change from DMSO, read-out: % Reduction in ROS production (IIIQO)
[14] = Table 7, percent change in ROS from DMSO controls

SMILES	ΔΨm ([1]; Table 8, glutamate)	ΔΨm ([1]; Table 9, glutamate)	IQ ([2]; Table 7)	IQ ([2]; Table 8)	IQ ([2]; Table 9)	GPDH ([3]; Table 8)	GPDH ([3]; Table 9)	IIIQO [4, 8]	SDH ([6]; Table 8)	SDH ([6]; Table 9)	inhibition at 2.5 µM [7, 9] [%]	IF [7, 8]	IF [7, 10]	% Reduction in ROS production (IQ) [2] [%]	inhibition ([3]; Table 8) [%]	inhibition at 2.5 µM [4, 11] [%]	inhibition at 2.5 µM ([6]; Table 8) [%]	inhibition at 2.5 µM [7, 12] [%]	inhibition at 2.5 µM [4, 13] [%]	further results
CN(C)CCN(Cc1ccccc1)Cc1ccc(C(F)(F)F)cc1 [Compound 29]	−0.6	−0.6	−2.1	−2.1	−2.1	−2.4	−2.4	−3.2	−0.1	−0.1	18.1	−18.1	−18.1	–	–	–	–	–	–	inhibition ([3]; Table 7): 2.4%; inhibition at 2.5 µM ([4]; Table 7, percent change in ROS from DMSO controls, read-out: IIIQO): 3.2%; inhibition at 2.5 µM ([4]; Table 9, percent change in ROS from DMSO controls, read-out: IIIQo): 3.2%; effect on IQ ROS with subsaturating substrate [5]: strong effects on IQ ROS with subsaturating substrate; also recorded: stronger off-target effects on IQ ROS when driven by low concentration succinate; inhibition at 2.5 µM ([6]; Table 7): 0.1%; inhibition at 2.5 µM ([7]; Table 7, percent change in ROS from DMSO controls, read-out: IF): 18.1%
O=C(Nc1nn[nH]n1)C1CCCCC1 [Compound 76]	0	–	–	−24	–	–	–	–	–	–	34	–	–	−24	0	0	-3	34	–	–
c1ccc(C2CCC(Nc3ccc4c(c3)OCO4)CC2)cc1 (centres unmarked) [Compound 77]	1	–	–	−18	–	–	–	–	–	–	–	–	–	−18	-1	15	0	6	15	–
Clc1ccc(C(NC2CCN(Cc3ccccc3)CC2)c2ccccc2)cc1 (centres unmarked) [Compound 78]	−1	–	–	2	–	–	–	–	–	–	37	–	–	–	6	30	5	37	30	–
CCC1CCCCN1C/C=C/c1ccc(N(C)C)cc1 (centres unmarked) [Compound 80]	0	–	–	0	–	–	–	–	–	–	23	–	–	–	11	12	-4	23	12	inhibition at 2.5 µM ([3]; Table 6, 25 mM glycerol phosphate, rotenone, antimycin A, malonate, myxothiazol, compounds 2.5 μM, scaled to IQ positive controls, read-out: % Reduction in ROS Production (GPDH)): 11%
CN(C)c1ccc(C(=C2CN3CCC2CC3)c2ccc(N(C)C)cc2)cc1 [Compound 81]	−1	–	–	2	–	–	–	–	–	–	–	–	–	–	13	0	1	49	–	–
Cc1cc(OCC(O)CN(Cc2ccccc2)C(C)(C)C)ccc1[N+](=O)[O-] (centres unmarked) [Compound 82]	0	–	–	−2	–	0	–	−10	−35	–	–	−34	–	–	–	–	–	–	–	% Reduction in ROS Production (SDH) [6]: −35%; % Reduction in ROS production (IF) ([7]; Table 3, 5 mM glutamate, 5 mM malate, 4 μM rotenone, compounds 2.5 μM, percent change from DMSO, positive control −100%): −34%
Clc1ccc(N2CCN(CC(c3ccccc3)c3ccccc3)CC2)cc1 [Compound 83]	1	–	–	2	–	–	–	–	–	–	–	–	–	–	3	29	14	1	29	% Reduction in ROS Production (SDH) [6]: −14%
O=[N+]([O-])c1ccc(Oc2ccc(S(=O)(=O)Nc3ccc(F)cc3)cc2)cc1 [Compound 84]	−1.5	−1.5	−47.7	−47.7	−47.7	−0.2	−0.2	0.8	0.7	0.7	–	−1.4	−1.4	−47.7	–	–	–	–	–	GPDH ([3]; Table 7): −0.2; IIIQO [4, 14]: 0.8; IIIQO [4, 10]: 0.8; SDH ([6]; Table 7): 0.7; IF [7, 14]: −1.4
O=[N+]([O-])c1ccc(Oc2ccc(S(=O)(=O)Nc3ccc4c(c3)OCCO4)cc2)cc1 [Compound 85]	−0.9	−0.9	−50.6	−50.6	−50.6	−3.3	−3.3	−0.8	3.6	3.6	–	0.5	0.5	−50.6	–	–	–	–	–	GPDH ([3]; Table 7): −3.3; IIIQO [4, 14]: −0.8; IIIQO [4, 10]: −0.8; SDH ([6]; Table 7): 3.6; IF [7, 14]: 0.5
